Experimental findings from US11149031B2, “Substituted N-(3-fluoropropyl)-pyrrolidine compounds, processes for their preparation and therapeutic uses thereof” (SANOFI, priority 2016, dated 2021) are described below.

The target of assay [1] is His6-ERα298-554 WT (ERα ligand-binding domain) (Homo sapiens (Human), UniProt P03372). Kind of assay: Test A: biochemical antagonist activity, LanthaScreen TR-FRET ERα coactivator assay, WT. Conditions: asterisk (*): protocol using 10 nM estradiol; read-out: Antagonism WT IC50. The method, boiled down: (§1)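 Compounds were added to receptor LBD (0.5 nM), terbium-labelled His6 antibody (0.5 nM), PGC1a coactivator peptide (250 nM) and estradiol at 3 nM or 10 nM. After incubating overnight at room temperature, the 520:495 nm ratio gave IC50 values by four-parameter logistic regression.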
Background: In TR-FRET formats the signal depends on donor and acceptor labels being close together.

For assay [2], the target named is His6-ERα298-554 D538G mutant (ERα ligand-binding domain) (Homo sapiens (Human), UniProt P03372, D538G). Kind of assay: Test A: biochemical antagonist activity, LanthaScreen TR-FRET ERα coactivator assay, D538G mutant. As to conditions: asterisk (*): protocol using 10 nM estradiol; read-out: Antagonism D538G IC50. The method in brief: as §1
In assay [3] the target is His6-ERα298-554 Y537S mutant (ERα ligand-binding domain) (Homo sapiens (Human), UniProt P03372, Y537S). Kind of assay: Test A: biochemical antagonist activity, LanthaScreen TR-FRET ERα coactivator assay, Y537S mutant. As to conditions: asterisk (*): protocol using 10 nM estradiol; read-out: Antagonism Y537S IC50. The method, boiled down:
as §1

In assay [4] the test system is MCF7 cells (breast tumor cells) WT. Kind of assay: Test B: cell proliferation/viability assay (CellTiter-Glo) on MCF7 WT. Conditions: Homo sapiens, 7 days of compound exposure. The format is cell-based. The method, boiled down:
(§2)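 Mutant lines are MCF7 transfected with ER mutants and selected for estradiol-independent growth. Cells in phenol red-free MEM with 5% charcoal-stripped FBS received 9-point 1:5 dilutions (3-0.000001 μM) for 7 days; CellTiter-Glo luminescence, % viability relative to untreated after background subtraction.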
On the technique in general: In ATP-based viability assays light output follows the ATP content of the culture.

Assay [5] deals with MCF7 cells expressing mutant estrogen receptor Tyr 537 Ser. Kind of assay: Test B: cell proliferation/viability assay (CellTiter-Glo) on MCF7 Tyr 537 Ser mutant. Conditions: Homo sapiens, MCF7 cells expressing ER Tyr 537 Ser mutant, 7 days of compound exposure, read-out: proliferation MCF7 Y537S IC50. The format is cell-based. The method in brief: as §2
Assay [6] concerns MCF7 cells expressing mutant estrogen receptor Asp 538 Gly. Briefly: Test B: cell proliferation/viability assay (CellTiter-Glo) on MCF7 Asp 538 Gly mutant. Conditions: Homo sapiens, MCF7 cells expressing ER Asp 538 Gly mutant, 7 days of compound exposure, read-out: proliferation MCF7 D538G IC50. The format is cell-based. The method, boiled down: as §2
In the next assay the target is ERα in MCF7 cells (Homo sapiens (Human), UniProt P03372). Briefly: Test C: estrogen receptor degradation activity, ERα in cell western assay in MCF7 cells. The assay is classed as cell-based. Conditions: for DC50: 4 hours post compound addition, ERα in cell western, read-out: Degradation IC50; for % Degradation at 3 μM: 4 hours, relative to fulvestrant. The method in brief: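 MCF7 cells in phenol-red-free medium with 5% charcoal-stripped FBS received compound (9-point 1:5, 3-0.000018 μM) for 4 h, then were fixed. ERα immunostained (Alexa 488) and normalised to DNA (Syto-64), read as integrated fluorescence on an Acumen scanner.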

Like-named read-outs stand apart in the source and are kept apart here.

ERα in MCF7 cells, sequence (P03372 whole entry): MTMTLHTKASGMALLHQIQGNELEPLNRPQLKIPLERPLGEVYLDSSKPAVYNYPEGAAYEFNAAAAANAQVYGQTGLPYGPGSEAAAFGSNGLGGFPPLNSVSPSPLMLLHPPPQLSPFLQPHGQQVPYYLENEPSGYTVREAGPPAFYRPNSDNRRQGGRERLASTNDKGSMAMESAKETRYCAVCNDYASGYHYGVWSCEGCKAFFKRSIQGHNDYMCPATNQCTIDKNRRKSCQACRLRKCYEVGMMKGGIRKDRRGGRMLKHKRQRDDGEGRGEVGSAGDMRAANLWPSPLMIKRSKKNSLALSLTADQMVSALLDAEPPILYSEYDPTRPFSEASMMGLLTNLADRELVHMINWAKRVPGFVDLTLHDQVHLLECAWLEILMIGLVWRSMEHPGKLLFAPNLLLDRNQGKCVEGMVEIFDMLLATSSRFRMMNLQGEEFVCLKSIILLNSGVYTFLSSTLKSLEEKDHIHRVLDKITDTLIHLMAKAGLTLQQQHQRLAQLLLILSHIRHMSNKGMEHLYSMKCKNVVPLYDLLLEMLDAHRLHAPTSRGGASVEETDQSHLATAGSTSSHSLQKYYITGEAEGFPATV
His6-ERα298-554 Y537S mutant (ERα ligand-binding domain), sequence (P03372 298-554 Y537S): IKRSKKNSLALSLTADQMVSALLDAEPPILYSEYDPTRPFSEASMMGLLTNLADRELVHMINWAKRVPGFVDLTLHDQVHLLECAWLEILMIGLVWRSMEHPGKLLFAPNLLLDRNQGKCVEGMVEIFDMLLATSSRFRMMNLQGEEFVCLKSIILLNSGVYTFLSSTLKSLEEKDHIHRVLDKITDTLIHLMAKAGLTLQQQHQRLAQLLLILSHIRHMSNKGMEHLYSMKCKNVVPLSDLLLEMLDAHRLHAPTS
His6-ERα298-554 WT (ERα ligand-binding domain), sequence (P03372 298-554): as the sequence (P03372 298-554 Y537S) above, with S240Y counted along it
His6-ERα298-554 D538G mutant (ERα ligand-binding domain), sequence (P03372 298-554 D538G): as the sequence (P03372 298-554 Y537S) above, with S240Y, D241G counted along it

For the compound `O=C1COc2ccc(C3=C(c4ccc(O[C@H]5CCN(CCCF)C5)cc4)c4ccc(O)cc4SC3)cc2N1` [Example 38, 6-[4-[4-[(3S)-1-(3-fluoropropyl)pyrrolidin-3-yl]oxyphenyl]-7-hydroxy-2H-thiochromen-3-yl]-4H-1,4-benzoxazin-3-one], the IC50 was 604 nM in assay [1]; above 4000 nM in assay [2]; 3710 nM in assay [3]; 12 nM in assay [4] (MCF7, 168 h); above 999 nM in assay [5] (MCF7, 168 h); 16 nM in assay [6] (MCF7, 168 h). For the same compound, the DC50 on ERα in MCF7 cells came to 12 nM. In addition, the “% Degradation at 3 μM” value on ERα in MCF7 cells was determined as 86%.

In the case of `CCOc1ccc(C2=C(c3ccc(O[C@H]4CCN(CCCF)C4)cc3)c3ccc(O)cc3SC2)c(C)c1` [Example 39, 3-(4-ethoxy-2-methyl-phenyl)-4-[4-[(3S)-1-(3-fluoropropyl)pyrrolidin-3-yl]oxyphenyl]-2H-thiochromen-7-ol], the IC50 in assay [1] was 9 nM; in assay [2], 221 nM; in assay [3], 127 nM; in assay [4] (MCF7, 168 h) it was 0.4 nM; in assay [5] (MCF7, 168 h) it was 2 nM; in assay [6] (MCF7, 168 h), 0.5 nM. Moreover, the DC50 on ERα in MCF7 cells came to 0.7 nM. In addition, the “% Degradation at 3 μM” value at ERα in MCF7 cells stood at 86%.

`CCOc1cc(F)c(C2=C(c3ccc(O[C@H]4CCN(CCCF)C4)cc3)c3ccc(O)cc3SC2)cc1F` [Example 40, 3-(4-ethoxy-2,5-difluoro-phenyl)-4-[4-[(3S)-1-(3-fluoropropyl)pyrrolidin-3-yl]oxyphenyl]-2H-thiochromen-7-ol]: the IC50 was found to be 44 nM in assay [1]; 901 nM in assay [2]; 605 nM in assay [3]; 1 nM in assay [4] (MCF7, 168 h); 20 nM in assay [5] (MCF7, 168 h); 2 nM in assay [6] (MCF7, 168 h). At ERα in MCF7 cells, the DC50 turned out to be 0.2 nM. The “% Degradation at 3 μM” value on ERα in MCF7 cells is 81%.

As for `CCOc1ccc(C2=C(c3ccc(O[C@H]4CCN(CCCF)C4)cc3)c3ccc(O)cc3SC2)c(F)c1F` [Example 41, 3-(4-ethoxy-2,3-difluoro-phenyl)-4-[4-[(3S)-1-(3-fluoropropyl)pyrrolidin-3-yl]oxyphenyl]-2H-thiochromen-7-ol], the IC50 amounted to 27 nM in assay [1]; 740 nM in assay [2]; 407 nM in assay [3]; 0.9 nM in assay [4] (MCF7, 168 h); 4 nM in assay [5] (MCF7, 168 h); 1 nM in assay [6] (MCF7, 168 h). For the same compound, on ERα in MCF7 cells, the DC50 was 1 nM. Besides, the “% Degradation at 3 μM” value on ERα in MCF7 cells was determined as 85%.

For `NS(=O)(=O)c1ccc(C2=C(c3ccc(O[C@H]4CCN(CCCF)C4)cc3)c3ccc(O)cc3SC2)cc1` [Example 42, 4-[4-[4-[(3S)-1-(3-fluoropropyl)pyrrolidin-3-yl]oxyphenyl]-7-hydroxy-2H-thiochromen-3-yl]benzenesulfonamide], the IC50 was 674 nM in assay [1]; above 4000 nM in assay [2]; above 4000 nM in assay [3]; 46 nM in assay [4] (MCF7, 168 h); 809 nM in assay [5] (MCF7, 168 h); 31 nM in assay [6] (MCF7, 168 h). In addition, the DC50 at ERα in MCF7 cells amounted to 11 nM. Moreover, the “% Degradation at 3 μM” value at ERα in MCF7 cells is recorded as 89%.

Consider `CCOc1cc(Cl)ccc1C1=C(c2ccc(O[C@H]3CCN(CCCF)C3)cc2)c2ccc(O)cc2SC1` [Example 43, 3-(4-chloro-2-ethoxy-phenyl)-4-[4-[(3S)-1-(3-fluoropropyl)pyrrolidin-3-yl]oxyphenyl]-2H-thiochromen-7-ol], for which the IC50 in assay [1] was found to be 96 nM; in assay [2] it was 1140 nM; in assay [3], 673 nM; in assay [4] (MCF7, 168 h), 0.4 nM; in assay [5] (MCF7, 168 h) it was 11 nM; in assay [6] (MCF7, 168 h), 1 nM. Moreover, the DC50 at ERα in MCF7 cells was determined as 0.8 nM. In addition, the “% Degradation at 3 μM” value at ERα in MCF7 cells was 97%.

For `Oc1ccc2c(c1)SCC(c1ccc(OC3COC3)cc1)=C2c1ccc(O[C@H]2CCN(CCCF)C2)cc1` [Example 44, 4-[4-[(3S)-1-(3-fluoropropyl)pyrrolidin-3-yl]oxyphenyl]-3-[4-(oxetan-3-yloxy)phenyl]-2H-thiochromen-7-ol], the IC50 in assay [1] is 172 nM; in assay [2], 2930 nM; in assay [3], 1820 nM; in assay [4] (MCF7, 168 h), above 999 nM; in assay [5] (MCF7, 168 h) it was above 999 nM; in assay [6] (MCF7, 168 h) it was above 999 nM. In addition, at ERα in MCF7 cells, the DC50 is 8 nM. Further, the “% Degradation at 3 μM” value at ERα in MCF7 cells was determined as 89%.

On to `COc1ccc(C2=C(c3ccc(O[C@H]4CCN(CCCF)C4)cc3)c3ccc(O)cc3SC2)c(F)n1` [Example 45, 3-(2-fluoro-6-methoxy-3-pyridyl)-4-[4-[(3S)-1-(3-fluoropropyl)pyrrolidin-3-yl]oxyphenyl]-2H-thiochromen-7-ol], for which the IC50 in assay [1] came to 1 nM; in assay [2], 34 nM; in assay [3], 14 nM; in assay [4] (MCF7, 168 h), 0.1 nM; in assay [5] (MCF7, 168 h), 2 nM; in assay [6] (MCF7, 168 h), 0.6 nM. For the same compound, the DC50 on ERα in MCF7 cells worked out at 0.2 nM. Moreover, the “% Degradation at 3 μM” value on ERα in MCF7 cells was 87%.

With `Oc1ccc2c(c1)SCC(c1ccc(O)nc1F)=C2c1ccc(O[C@H]2CCN(CCCF)C2)cc1` [Example 46, 6-fluoro-5-[4-[4-[(3S)-1-(3-fluoropropyl)pyrrolidin-3-yl]oxyphenyl]-7-hydroxy-2H-thiochromen-3-yl]pyridin-2-ol], the IC50 in assay [1] was 5 nM; in assay [2], 101 nM; in assay [3], 59 nM; in assay [4] (MCF7, 168 h), 0.1 nM; in assay [5] (MCF7, 168 h), 2 nM; in assay [6] (MCF7, 168 h) it was 0.5 nM. Besides, the DC50 on ERα in MCF7 cells worked out at 0.2 nM. The “% Degradation at 3 μM” value on ERα in MCF7 cells was found to be 83%.

`Cc1ccc(C2=C(c3ccc(O[C@H]4CCN(CCCF)C4)cc3)c3ccc(OP(=O)(O)O)cc3SC2)c(F)c1` [Example 48, [3-(2-fluoro-4-methyl-phenyl)-4-[4-[(3S)-1-(3-fluoropropyl)pyrrolidin-3-yl]oxyphenyl]-2H-thiochromen-7-yl]dihydrogen phosphate]: the IC50 in assay [1] was above 4000 nM; in assay [2], above 4000 nM; in assay [3], above 4000 nM; in assay [4] (168 h) it was 1 nM; in assay [5] (168 h), 17 nM; in assay [6] (168 h), 6 nM. In addition, at ERα in MCF7 cells, the DC50 was 0.8 nM. Further, at ERα in MCF7 cells, the “% Degradation at 3 μM” value is 89%.

Consider `Oc1ccc2c(c1)SCC(c1ccc(F)nc1F)=C2c1ccc(O[C@H]2CCN(CCCF)C2)cc1` [Example 49, 3-(2,6-difluoro-3-pyridyl)-4-[4-[(3S)-1-(3-fluoropropyl)pyrrolidin-3-yl]oxyphenyl]-2H-thiochromen-7-ol], for which the IC50 in assay [1] is 37 nM; in assay [2] it was 888 nM; in assay [3] it was 472 nM; in assay [4] (MCF7, 168 h) it was 0.3 nM; in assay [5] (MCF7, 168 h), 3 nM; in assay [6] (MCF7, 168 h) it was 0.9 nM. Besides, the DC50 on ERα in MCF7 cells came to 0.2 nM. Moreover, on ERα in MCF7 cells, the “% Degradation at 3 μM” value was found to be 89%.

Regarding `Oc1ccc2c(c1)SCC(c1ccc(Cl)nc1Cl)=C2c1ccc(O[C@H]2CCN(CCCF)C2)cc1` [Example 50, 3-(2,6-dichloro-3-pyridyl)-4-[4-[(3S)-1-(3-fluoropropyl)pyrrolidin-3-yl]oxyphenyl]-2H-thiochromen-7-ol], the IC50 in assay [1] stood at 72 nM; in assay [2], 1550 nM; in assay [3], 1170 nM; in assay [4] (MCF7, 168 h) it was 0.6 nM; in assay [5] (MCF7, 168 h), 7 nM; in assay [6] (MCF7, 168 h) it was 2 nM. In addition, at ERα in MCF7 cells, the DC50 was found to be 0.2 nM. Moreover, on ERα in MCF7 cells, the “% Degradation at 3 μM” value is on record as 84%.
